Common to all, as to test: Drug affinity chromatography with c-ponatinib and LC-MS/MS (ponatinib interactome)
Common to all, as to assay type: binding

The target in test [1] is T1, proteins of U2OS cell lysate (Homo sapiens, UniProt O75533).
T1 construct: Proteins enriched by c-ponatinib from U2OS cell lysate; endogenous in cells; host or cells: U2OS cell lysate
Here is the method:
(§1) Drug affinity chromatography
(§2) U2OS cells were grown until approximately 80% confluent before being pelleted and washed with PBS. Cell pellets were subsequently lysed in buffer A (50 mM Tris pH 7.5, 0.8% v/v NP-40, 5% v/v glycerol, 1.5 mM MgCl2, 100 mM NaCl, 25 mM NaF, 1 mM Na3VO4, 1 mM PMSF, 1mM DTT, 10 μg/mL TLCK, 1 μg/ml Leupeptin, 1 μg/ml Aprotinin, 1 μg/ml soy bean trypsin) and lysates prepared […]
(§3) concentration was determined and lysates stored at -80 °C.
(§4) Briefly, 100 μl of bead slurry (50% in isopropanol) were used for each pulldown experiment. Beads were washed with DMSO (3 × 500 μl), and resuspended in DMSO (50 μl), to which the amine (0.025 μmol) and triethylamine (0.75 μl) were added. The beads were incubated at room temperature for 16 h, and depletion of free amine from the supernatant was determined by LC-MS analysis. Ethanolamine (2.5 μl) was then added to block any unreacted NHS sites, and the beads incubated for a further 16 h. Derivatized beads were then washed with DMSO (3 × 500 μl), buffer A (3 × 1 ml), and incubated with cell lysates (2 mg of protein per pulldown, at 6 […]
(§5) Beads and treated lysates were incubated for 2 h at 4 °C before washing with buffer A (5 ml), Buffer B (50 mM HEPES pH 7.5, 100 mM NaCl, 500 μM EDTA, 2.5 ml), and eluted with formic acid (100 mM, 250 μl). Samples were neutralized with triethylammoniumbicarbonate (TEAB, 1M, 62.5 μl) and stored at -20 °C until preparation for proteomic analysis.
(§6) Samples were reduced with DTT (10 mM final concentration) for 30 min at room temperature, alkylated with iodoacetamide (55 mM final concentration) for 30 min at room temperature, diluted to 300 μl with TEAB, and incubated with trypsin (6 μl, 0.2 mg/ml) overnight at 37 °C. The digests were desalted using SEPAC lite columns (Waters), eluted with 69 % v/v MeCN, 0.1 % v/v FA in H2O (1 ml) and dried in vacuo. Dried peptides were stored at -20 °C before resuspension in 2 % v/v MeCN, 1 % v/v FA in H2O (20 μl) for LC-MS/MS analysis.
(§7) LC-MS/MS data acquisition
(§8) Mass spectrometry data was acquired at the Discovery Proteomics Facility (University of Oxford).
(§9) Digested samples were analyzed by nano-UPLC–MS/MS using a Dionex Ultimate 3000 nano UPLC with EASY spray column (75 μm × 500 mm, 2 μm particle size, Thermo Fisher Scientific) with a 60 min gradient of 0.1 % (v/v) formic acid in 5 % (v/v) DMSO to 0.1 % (v/v) formic acid with 35 % (v/v) acetonitrile in 5 % (v/v) DMSO at a flow rate of approximately 250 nl min−1 (600 bar per 40 °C column temperature). Mass spectrometry data was acquired either with an Orbitrap Q Exactive (Survey scans acquired at a resolution of 70,000 @ 200m/z and the 15 most abundant precursors were selected for HCD fragmentation), or an Orbitrap Q Exactive High Field (HF) instrument (survey scans were […]

The target in test [2] is T2, proteins of U2OS cell lysate (Homo sapiens, UniProt O00159).
T2 construct: Proteins enriched by c-ponatinib from U2OS cell lysate; endogenous in cells; host or cells: U2OS cell lysate
The protocol:
as §1, §2, §3, §4, §5, §6, §7, §8, §9

For test [3], the target named is T3, proteins of U2OS cell lysate (Homo sapiens, UniProt Q9UP83).
T3 construct: Proteins enriched by c-ponatinib from U2OS cell lysate; endogenous in cells; host or cells: U2OS cell lysate
Here is the method:
as §1, §2, §3, §4, §5, §6, §7, §8, §9

In test [4] the target is T4, proteins of U2OS cell lysate (Homo sapiens, UniProt Q12874).
T4 construct: Proteins enriched by c-ponatinib from U2OS cell lysate; endogenous in cells; host or cells: U2OS cell lysate
Here is the method: as §1, §2, §3, §4, §5, §6, §7, §8, §9

Test [5] deals with T5, proteins of U2OS cell lysate (Homo sapiens, UniProt Q9BUF5).
T5 construct: Proteins enriched by c-ponatinib from U2OS cell lysate; endogenous in cells; host or cells: U2OS cell lysate
Here is the method:
as §1, §2, §3, §4, §5, §6, §7, §8, §9

The target in test [6] is T6, proteins of U2OS cell lysate (Homo sapiens, UniProt P83436).
T6 construct: Proteins enriched by c-ponatinib from U2OS cell lysate; endogenous in cells; host or cells: U2OS cell lysate
The protocol:
as §1, §2, §3, §4, §5, §6, §7, §8, §9

Test [7] has as its target T7, proteins of U2OS cell lysate (Homo sapiens, UniProt Q15428).
T7 construct: Proteins enriched by c-ponatinib from U2OS cell lysate; endogenous in cells; host or cells: U2OS cell lysate
The protocol:
as §1, §2, §3, §4, §5, §6, §7, §8, §9

For test [8], the target named is T8, proteins of U2OS cell lysate (Homo sapiens, UniProt Q06830).
T8 construct: Proteins enriched by c-ponatinib from U2OS cell lysate; endogenous in cells; host or cells: U2OS cell lysate
Here is the method: as §1, §2, §3, §4, §5, §6, §7, §8, §9

In test [9] the target is T9, proteins of U2OS cell lysate (Homo sapiens, UniProt P29597).
T9 construct: Proteins enriched by c-ponatinib from U2OS cell lysate; endogenous in cells; host or cells: U2OS cell lysate
Here is the method:
as §1, §2, §3, §4, §5, §6, §7, §8, §9

In test [10] the target is T10, proteins of U2OS cell lysate (Homo sapiens, UniProt P35268).
T10 construct: Proteins enriched by c-ponatinib from U2OS cell lysate; endogenous in cells; host or cells: U2OS cell lysate
The protocol:
as §1, §2, §3, §4, §5, §6, §7, §8, §9

Test [11] concerns the target T11, proteins of U2OS cell lysate (Homo sapiens, UniProt P19338).
T11 construct: Proteins enriched by c-ponatinib from U2OS cell lysate; endogenous in cells; host or cells: U2OS cell lysate
The protocol:
as §1, §2, §3, §4, §5, §6, §7, §8, §9

For test [12], the target named is T12, proteins of U2OS cell lysate (Homo sapiens, UniProt Q9Y6K9).
T12 construct: Proteins enriched by c-ponatinib from U2OS cell lysate; endogenous in cells; host or cells: U2OS cell lysate
The protocol: as §1, §2, §3, §4, §5, §6, §7, §8, §9

For test [13], the target named is T13, proteins of U2OS cell lysate (Homo sapiens, UniProt P14618).
T13 construct: Proteins enriched by c-ponatinib from U2OS cell lysate; endogenous in cells; host or cells: U2OS cell lysate
Here is the method:
as §1, §2, §3, §4, §5, §6, §7, §8, §9

Test [14] addresses T14, proteins of U2OS cell lysate (Homo sapiens, UniProt P23396).
T14 construct: Proteins enriched by c-ponatinib from U2OS cell lysate; endogenous in cells; host or cells: U2OS cell lysate
The protocol: as §1, §2, §3, §4, §5, §6, §7, §8, §9

In test [15] the target is T15, proteins of U2OS cell lysate (Homo sapiens, UniProt P60900).
T15 construct: Proteins enriched by c-ponatinib from U2OS cell lysate; endogenous in cells; host or cells: U2OS cell lysate
The protocol:
as §1, §2, §3, §4, §5, §6, §7, §8, §9

The target in test [16] is T16, proteins of U2OS cell lysate (Homo sapiens, UniProt Q9BWU1).
T16 construct: Proteins enriched by c-ponatinib from U2OS cell lysate; endogenous in cells; host or cells: U2OS cell lysate
Here is the method: as §1, §2, §3, §4, §5, §6, §7, §8, §9

Test [17] addresses T17, proteins of U2OS cell lysate (Homo sapiens, UniProt P50613).
T17 construct: Proteins enriched by c-ponatinib from U2OS cell lysate; endogenous in cells; host or cells: U2OS cell lysate
Here is the method: as §1, §2, §3, §4, §5, §6, §7, §8, §9

The target in test [18] is T18, proteins of U2OS cell lysate (Homo sapiens, UniProt P49327).
T18 construct: Proteins enriched by c-ponatinib from U2OS cell lysate; endogenous in cells; host or cells: U2OS cell lysate
Here is the method:
as §1, §2, §3, §4, §5, §6, §7, §8, §9

The target of test [19] is T19, proteins of U2OS cell lysate (Homo sapiens, UniProt Q9Y262).
T19 construct: Proteins enriched by c-ponatinib from U2OS cell lysate; endogenous in cells; host or cells: U2OS cell lysate
The protocol:
as §1, §2, §3, §4, §5, §6, §7, §8, §9

Each structure is given as a SMILES string.

T15 sequence (P60900 whole entry): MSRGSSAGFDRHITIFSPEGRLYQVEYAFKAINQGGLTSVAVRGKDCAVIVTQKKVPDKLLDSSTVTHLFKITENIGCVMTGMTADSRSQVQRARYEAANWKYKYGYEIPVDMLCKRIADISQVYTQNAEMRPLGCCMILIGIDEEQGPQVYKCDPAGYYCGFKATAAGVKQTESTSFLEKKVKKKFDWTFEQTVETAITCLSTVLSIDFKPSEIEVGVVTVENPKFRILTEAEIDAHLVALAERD
T19 sequence (Q9Y262 whole entry): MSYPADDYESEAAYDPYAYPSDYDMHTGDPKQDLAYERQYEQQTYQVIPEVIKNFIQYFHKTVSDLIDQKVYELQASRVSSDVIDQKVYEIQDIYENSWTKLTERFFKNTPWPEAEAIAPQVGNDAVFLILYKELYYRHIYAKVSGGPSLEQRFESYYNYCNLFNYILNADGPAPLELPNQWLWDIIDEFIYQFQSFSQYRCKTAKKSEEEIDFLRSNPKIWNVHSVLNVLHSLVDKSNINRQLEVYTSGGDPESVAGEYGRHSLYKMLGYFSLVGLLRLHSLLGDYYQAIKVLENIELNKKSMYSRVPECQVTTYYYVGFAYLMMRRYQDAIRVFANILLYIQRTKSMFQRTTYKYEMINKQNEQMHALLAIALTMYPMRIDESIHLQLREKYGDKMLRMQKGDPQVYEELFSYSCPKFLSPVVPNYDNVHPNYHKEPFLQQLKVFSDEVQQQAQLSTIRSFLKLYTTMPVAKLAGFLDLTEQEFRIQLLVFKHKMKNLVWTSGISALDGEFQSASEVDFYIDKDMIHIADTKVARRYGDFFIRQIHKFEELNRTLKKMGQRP
T11 sequence (P19338 whole entry): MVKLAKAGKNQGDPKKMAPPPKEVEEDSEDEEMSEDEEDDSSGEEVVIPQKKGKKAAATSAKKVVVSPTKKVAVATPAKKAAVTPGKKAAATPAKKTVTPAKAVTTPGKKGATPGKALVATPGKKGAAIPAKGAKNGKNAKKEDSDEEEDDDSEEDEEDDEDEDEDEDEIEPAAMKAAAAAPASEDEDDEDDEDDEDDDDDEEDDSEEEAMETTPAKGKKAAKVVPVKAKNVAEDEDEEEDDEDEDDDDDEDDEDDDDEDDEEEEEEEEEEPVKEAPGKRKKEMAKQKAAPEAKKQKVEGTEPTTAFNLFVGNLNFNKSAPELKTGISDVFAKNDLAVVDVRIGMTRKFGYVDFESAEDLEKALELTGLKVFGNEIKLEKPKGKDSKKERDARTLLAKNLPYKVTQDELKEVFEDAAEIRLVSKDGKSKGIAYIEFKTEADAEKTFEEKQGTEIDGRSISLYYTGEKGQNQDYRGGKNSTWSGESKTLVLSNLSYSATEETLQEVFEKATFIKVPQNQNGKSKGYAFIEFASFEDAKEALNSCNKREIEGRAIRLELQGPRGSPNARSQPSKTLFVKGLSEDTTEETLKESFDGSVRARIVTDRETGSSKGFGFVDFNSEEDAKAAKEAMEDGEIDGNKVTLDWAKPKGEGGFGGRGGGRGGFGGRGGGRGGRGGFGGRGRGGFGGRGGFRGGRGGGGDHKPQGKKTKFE
T17 sequence (P50613 whole entry): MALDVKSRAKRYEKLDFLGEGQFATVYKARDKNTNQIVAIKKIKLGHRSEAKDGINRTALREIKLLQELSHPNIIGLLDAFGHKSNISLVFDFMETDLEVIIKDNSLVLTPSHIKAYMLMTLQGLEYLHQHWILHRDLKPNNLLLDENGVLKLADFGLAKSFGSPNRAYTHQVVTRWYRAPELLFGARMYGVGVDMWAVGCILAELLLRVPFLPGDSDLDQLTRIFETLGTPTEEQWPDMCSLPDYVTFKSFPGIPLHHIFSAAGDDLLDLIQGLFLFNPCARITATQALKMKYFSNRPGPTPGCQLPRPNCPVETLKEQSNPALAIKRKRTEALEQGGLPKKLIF
T3 sequence (Q9UP83 whole entry): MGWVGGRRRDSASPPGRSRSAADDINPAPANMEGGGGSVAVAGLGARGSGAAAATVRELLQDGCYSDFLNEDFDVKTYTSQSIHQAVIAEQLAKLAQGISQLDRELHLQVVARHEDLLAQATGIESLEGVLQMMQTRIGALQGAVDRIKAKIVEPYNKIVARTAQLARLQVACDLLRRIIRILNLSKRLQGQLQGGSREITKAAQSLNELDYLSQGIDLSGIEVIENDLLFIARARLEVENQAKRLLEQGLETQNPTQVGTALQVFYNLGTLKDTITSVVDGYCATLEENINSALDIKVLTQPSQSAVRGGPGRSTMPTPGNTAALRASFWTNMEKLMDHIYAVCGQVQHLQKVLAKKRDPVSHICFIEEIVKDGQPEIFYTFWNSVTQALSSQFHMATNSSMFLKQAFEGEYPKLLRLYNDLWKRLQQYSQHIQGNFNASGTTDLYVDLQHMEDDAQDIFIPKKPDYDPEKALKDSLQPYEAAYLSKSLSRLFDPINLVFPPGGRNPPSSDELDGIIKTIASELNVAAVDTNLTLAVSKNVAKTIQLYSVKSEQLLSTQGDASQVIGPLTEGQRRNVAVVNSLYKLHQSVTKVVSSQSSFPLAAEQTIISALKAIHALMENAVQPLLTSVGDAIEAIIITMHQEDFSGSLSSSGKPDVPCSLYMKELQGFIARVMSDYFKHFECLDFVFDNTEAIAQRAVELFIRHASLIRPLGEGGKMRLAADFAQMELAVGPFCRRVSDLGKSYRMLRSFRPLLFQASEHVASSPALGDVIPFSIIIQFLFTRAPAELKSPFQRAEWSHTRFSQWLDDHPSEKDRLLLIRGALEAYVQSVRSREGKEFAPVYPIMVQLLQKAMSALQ
T13 sequence (P14618 whole entry): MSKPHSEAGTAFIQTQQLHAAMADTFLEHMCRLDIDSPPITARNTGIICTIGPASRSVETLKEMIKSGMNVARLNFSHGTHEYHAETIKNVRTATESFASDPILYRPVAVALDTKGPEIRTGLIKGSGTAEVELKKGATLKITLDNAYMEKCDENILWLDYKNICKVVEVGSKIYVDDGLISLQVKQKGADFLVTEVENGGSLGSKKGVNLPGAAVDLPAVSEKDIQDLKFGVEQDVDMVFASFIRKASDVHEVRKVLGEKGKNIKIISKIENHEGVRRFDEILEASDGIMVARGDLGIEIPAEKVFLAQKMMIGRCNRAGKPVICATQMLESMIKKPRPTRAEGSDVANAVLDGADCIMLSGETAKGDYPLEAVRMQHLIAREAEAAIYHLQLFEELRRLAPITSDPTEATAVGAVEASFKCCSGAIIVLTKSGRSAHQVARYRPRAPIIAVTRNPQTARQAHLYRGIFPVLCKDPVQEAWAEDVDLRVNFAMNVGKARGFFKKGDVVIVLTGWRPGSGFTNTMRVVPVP
T5 sequence (Q9BUF5 whole entry): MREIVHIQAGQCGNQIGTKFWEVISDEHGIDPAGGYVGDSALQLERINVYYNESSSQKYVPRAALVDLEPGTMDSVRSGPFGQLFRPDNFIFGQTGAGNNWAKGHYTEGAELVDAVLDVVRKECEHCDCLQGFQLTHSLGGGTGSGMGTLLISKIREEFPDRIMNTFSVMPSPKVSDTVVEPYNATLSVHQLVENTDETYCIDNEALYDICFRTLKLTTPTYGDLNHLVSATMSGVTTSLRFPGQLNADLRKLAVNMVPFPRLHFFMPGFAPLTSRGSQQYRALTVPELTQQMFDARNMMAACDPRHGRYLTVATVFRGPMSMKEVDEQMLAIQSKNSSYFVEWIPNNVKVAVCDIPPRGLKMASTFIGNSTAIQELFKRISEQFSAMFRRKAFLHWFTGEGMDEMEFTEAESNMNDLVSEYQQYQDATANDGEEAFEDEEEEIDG
T1 sequence (O75533 whole entry): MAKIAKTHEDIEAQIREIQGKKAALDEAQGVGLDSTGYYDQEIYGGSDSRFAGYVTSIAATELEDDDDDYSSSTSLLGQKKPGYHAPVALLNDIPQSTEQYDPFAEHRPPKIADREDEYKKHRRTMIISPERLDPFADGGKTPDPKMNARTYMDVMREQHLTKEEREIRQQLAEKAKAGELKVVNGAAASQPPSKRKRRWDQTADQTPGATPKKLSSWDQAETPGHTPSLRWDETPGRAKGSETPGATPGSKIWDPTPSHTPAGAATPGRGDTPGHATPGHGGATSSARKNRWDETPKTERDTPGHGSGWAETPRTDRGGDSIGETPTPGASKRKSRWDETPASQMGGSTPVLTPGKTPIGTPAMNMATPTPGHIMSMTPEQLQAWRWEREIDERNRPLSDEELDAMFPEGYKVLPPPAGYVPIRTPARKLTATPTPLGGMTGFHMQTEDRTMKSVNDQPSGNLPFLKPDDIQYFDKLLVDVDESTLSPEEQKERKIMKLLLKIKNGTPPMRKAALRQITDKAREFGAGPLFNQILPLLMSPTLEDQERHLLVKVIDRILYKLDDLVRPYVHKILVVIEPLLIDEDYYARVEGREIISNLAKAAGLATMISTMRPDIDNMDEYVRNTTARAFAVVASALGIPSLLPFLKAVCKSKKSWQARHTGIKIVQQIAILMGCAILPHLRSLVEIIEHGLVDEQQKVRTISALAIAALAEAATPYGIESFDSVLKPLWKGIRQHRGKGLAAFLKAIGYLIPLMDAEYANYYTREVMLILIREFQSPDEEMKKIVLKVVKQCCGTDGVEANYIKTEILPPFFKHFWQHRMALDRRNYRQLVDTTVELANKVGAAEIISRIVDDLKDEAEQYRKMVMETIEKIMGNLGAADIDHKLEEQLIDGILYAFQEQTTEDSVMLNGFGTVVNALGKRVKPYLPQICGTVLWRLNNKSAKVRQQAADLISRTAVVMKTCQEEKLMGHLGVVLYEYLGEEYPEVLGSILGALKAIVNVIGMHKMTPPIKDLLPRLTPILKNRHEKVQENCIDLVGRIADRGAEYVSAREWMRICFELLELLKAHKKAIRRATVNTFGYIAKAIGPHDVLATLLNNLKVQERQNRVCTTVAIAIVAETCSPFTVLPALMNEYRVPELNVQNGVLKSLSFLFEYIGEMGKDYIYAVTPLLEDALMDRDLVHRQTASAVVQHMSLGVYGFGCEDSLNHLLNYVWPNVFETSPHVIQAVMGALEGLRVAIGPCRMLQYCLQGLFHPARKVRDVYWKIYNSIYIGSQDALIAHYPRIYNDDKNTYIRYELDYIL

For the molecule `Cc1ccc(C(=O)Nc2ccc(CN3CCN(C)CC3)c(C(F)(F)F)c2)cc1C#Cc1cnc2cccnn12` [PON], the “Average LFQ PON_WT” value in [1] (SF3B1, Splicing factor 3B subunit 1) stood at 22.352; in test [2] (MYO1C, Unconventional myosin-Ic), 21.7408; in [3] (COG5, Conserved oligomeric Golgi complex subunit 5), 22.09; in [4] (SF3A3, Splicing factor 3A subunit 3) it was 21.5172; in test [5] (TUBB6, Tubulin beta-6 chain) it was 22.6671; in [6] (COG7, Conserved oligomeric Golgi complex subunit 7), 22.1578. Besides, the “Average LFQ PON_WT” value in [7] (SF3A2, Splicing factor 3A subunit 2) worked out at 22.8464; in [8] (PRDX1, Peroxiredoxin-1), 22.2382; in test [9] (TYK2, Non-receptor tyrosine-protein kinase TYK2) it was 22.5645; in test [10] (RPL22, 60S ribosomal protein L22), 21.5804; in test [11] (NCL, Nucleolin), 23.1289; in [12] (IKBKG, NF-kappa-B essential modulator) it was 21.7256. The “Average LFQ PON_WT” value was found to be 21.567 in test [13] (PKM, Pyruvate kinase PKM); 21.7356 in test [14] (RPS3, 40S ribosomal protein S3); 22.244 in [15] (PSMA6, Proteasome subunit alpha type-6); 21.5435 in [16] (CDK19, Cyclin-dependent kinase 19); 22.0619 in test [17] (CDK7, Cyclin-dependent kinase 7); 22.4378 in test [18] (FASN, Fatty acid synthase). Besides, in test [19] (EIF3L, Eukaryotic translation initiation factor 3 subunit L), the “Average LFQ PON_WT” value was determined as 22.8981.

For the molecule `Cc1ccc(C(=O)Nc2ccc(CN3CCN(CCCN)CC3)c(C(F)(F)F)c2)cc1C#Cc1cnc2cccnn12` [c-ponatinib, reference compound], the “Average LFQ intensity” value worked out at 22.352 in [1] (captured protein SF3B1, Rank 165); 21.7408 in test [2] (captured protein MYO1C, Rank 209); 22.09 in test [3] (captured protein COG5, Rank 186); 21.5172 in test [4] (captured protein SF3A3, Rank 228); 22.6671 in test [5] (captured protein TUBB6, Rank 151); 22.1578 in test [6] (captured protein COG7, Rank 182). The “Average LFQ intensity” value was determined as 22.8464 in [7] (captured protein SF3A2, Rank 134); 22.2382 in test [8] (captured protein PRDX1, Rank 177); 22.5645 in test [9] (captured protein TYK2, Rank 155); 21.5804 in [10] (captured protein RPL22, Rank 221); 23.1289 in [11] (captured protein NCL, Rank 117); 21.7256 in test [12] (captured protein IKBKG, Rank 212). Also, the “Average LFQ intensity” value is 21.567 in test [13] (captured protein PKM, Rank 224); 21.7357 in test [14] (captured protein RPS3, Rank 210); 22.244 in test [15] (captured protein PSMA6, Rank 175); 21.5435 in test [16] (captured protein CDK19, Rank 226); 22.0619 in test [17] (captured protein CDK7, Rank 187); 22.4378 in test [18] (captured protein FASN, Rank 161). Besides, in test [19] (captured protein EIF3L, Rank 130), the “Average LFQ intensity” value is recorded as 22.8981.

Source of the values: publication PMC6120666 (The EMBO Journal, 2018).
